Ends that are not written are not given here.
Experiments:
[1] = target: target 13-mer (GP-1), amino terminus of a membrane glycoprotein; test: HPLAC zonal elution on column with immobilized target 13-mer (GP-1); format: binding, rat; details: for binding constants (in words): text summary of Table 4; for Km: zonal elution, immobilized GP-1, 100 mM NH4OAc pH 5.7, flow rate 1.0 ml/min, extrapolated to [P]=0, read-out: Equilibrium binding constant (dissociation constant) KM/P
Method: (§1) The recognition of the target peptide by the anti-sense peptides was evaluated by high performance affinity chroma tography (I. Chaiken, Ed., "Analytical Affinity Chromatography," CRC Press, Boca Raton, 1987). This system was chosen because it allows direct measurement of molecular interactions and it is not limited by either molecular size or by the need for a specialized detection system. The target 13-mer (GP-1) was immobilized on an affinity support system. The binding properties to the target peptide were evaluated by zonal elution methods (FIG. III) (Y. Shai et al, Biochem., 26:669 (1987)). The anti-sense recognition peptides were eluted on the sense column and the retardation volume of the peptide (V) was compared to the column void volume (Vo). Equilibrium binding constants were determined by loading varying amounts of the anti-sense peptides on the column and employing the equation: [formula] where KM/P represents the dissociation constant for the binding process,
MT is the amount of target peptide immobilized and
[P]represents the amount of recognition peptide eluted E. Swaisgood et al, Biochem., 25:4148 (1986)).
The KM/P values are obtained subsequent to extrapolation to [P]=0.
Values were obtained by zonal elution on a column with immobilized target
peptide (GP1) equilibrated with 100 mM NH4 OAc, pH = 5.7 with column
flow rate of 1.0 ml/min.

[2] = target: putative ATP binding region of the raf (raf 357-376) (Rattus norvegicus, UniProt P11345); test: HPLAC on immobilized raf ATP binding region
Method: The values of the dissociation constants (KM/P) are obtained in 0.1 M NH4 CH3 COO pH 5.7.
as §1, with “The anti-sense recognition peptides were eluted on the sense column and the retardation volume of the peptide (V) was compared to the column void volume (Vo).” left out
In order to evaluate the general applicability of the complementary scoring program, a comparison was made between the DNA derived anti-sense peptide and a computer generated recognition-peptide. […] To compare the relative affinities of the DNA derived anti-sense peptide (FAR-[…]) and the computer generated recognition peptide (FARCG--[…]), the raf ATP binding region ([…]) was immobilized on an affinity support and the two anti-sense peptides evaluated by HPLAC techniques.

AAQHGGGLGVQVE [CODON-1, AAQHGGGLGVQVE]
binding constants (in words) [1]: millimolar range
Km [1]: 920 µM

AAQHGRGFGIQIE [CODON-2]
binding constants (in words) [1]: millimolar range
Km [1]: 460 µM

FHGHISMPFAFVYSSKAAAA [FAR-CG]
Km ([2]; immobilized raf ATP binding region GSGSFGTVYKGKWHGDVAVK, 0.1 M NH4CH3COO pH 5.7, read-out: Equilibrium binding constant KM/P): 8 µM
fold higher affinity for the target peptide compared to the DNA derived anti-sense peptide ([2]; relative to FAR): ~50 fold

— US5081584A, “Computer-assisted design of anti-peptides based on the amino acid sequence of a target peptide” (United States of America, priority 1989, dated 1992)
